Some test systems named below: 786-0 renal; EKVX NSCLC; HS 578T breast; HT29 colon; M14 melanoma; MALME-3M melanoma; NCI-H23 lung; SF-268 CNS; SN12C renal; T-47D breast.
Assay in all cases: NCI tumour cell line growth inhibition, 48 h

SMILES strings stand for the structures. Where “and” joins values, the source holds several entries; their conditions need not be identical. Equal entries are not always repeated.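 Five compound concentrations were applied to cells in 96-well plates for 48 hours; endpoints were derived by simple linear interpolation of the resulting dose-response curve. Abbreviation: GI50, concentration required for 50% inhibition of growth. TGI: total growth inhibition.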

On to `CCCCCCCCCCCCCCCCCC(=O)[O][Sn]([CH2]CCC)([CH2]CCC)[CH2]CCC`, for which the GI50 was 0.152 µM in the assay on 786-0 renal; 0.0713 µM in the assay with EKVX NSCLC; 0.217 µM in the assay with HS 578T breast; 0.113 µM in the assay with HT29 colon; 0.169 µM with M14 melanoma; 0.141 µM in the assay with MALME-3M melanoma. The GI50 in the assay on NCI-H23 lung was 0.127 µM; in the assay on SF-268 CNS, 0.141 µM; in the assay with SN12C renal, 0.152 µM; in the assay with T-47D breast, 0.124 µM. The TGI was 0.305 µM in the assay with 786-0 renal; 0.297 µM in the assay with EKVX NSCLC; 0.752 µM in the assay on HS 578T breast; 0.311 µM with HT29 colon; 0.32 µM with M14 melanoma; 0.327 µM in the assay with MALME-3M melanoma. Moreover, the TGI with NCI-H23 lung worked out at 0.287 µM; with SF-268 CNS, 0.337 µM; in the assay on SN12C renal it was 0.403 µM; in the assay on T-47D breast it was 0.293 µM.
For the compound `CN(C)c1cc2c(cc1Sc1nc3c(N)nccc3n1CCNCC(C)(C)C)OCO2`, the GI50 in the assay with 786-0 renal is 3.89 µM; in the assay with EKVX NSCLC it was 1.34 µM; with HS 578T breast, 2.04 µM; in the assay on HT29 colon, 0.285 µM; in the assay with M14 melanoma, 0.532 µM; with MALME-3M melanoma, 0.428 µM. For the same compound, the GI50 was 0.448 µM with NCI-H23 lung, 1.08 µM in the assay on SF-268 CNS, 0.507 µM in the assay with SN12C renal and 0.533 µM in the assay on T-47D breast. Further, the TGI in the assay with 786-0 renal turned out to be 21.4 µM; with EKVX NSCLC, 35.2 µM; in the assay on HS 578T breast, 23.7 µM; in the assay with HT29 colon it was 11.1 µM; in the assay with M14 melanoma, 15.9 µM; in the assay with MALME-3M melanoma it was 4.91 µM. The TGI is 22.8 µM in the assay on NCI-H23 lung, 22.4 µM in the assay on SF-268 CNS, 25 µM in the assay on SN12C renal and 31.1 µM with T-47D breast.
`Cc1cc(N2CCOCC2)nc(N(CCNc2ccnc3cc(Cl)ccc23)Cc2ccco2)n1`: the GI50 was 2.14 µM in the assay with 786-0 renal; 12.7 µM in the assay with EKVX NSCLC; 2.64 µM in the assay with HS 578T breast; 1.92 µM in the assay on HT29 colon; 2.34 µM with M14 melanoma; 3.41 µM with MALME-3M melanoma. For the same compound, the GI50 in the assay on NCI-H23 lung was 5.58 µM; in the assay on SF-268 CNS it was 11.1 µM; in the assay on SN12C renal, 6.88 µM; in the assay on T-47D breast, 2.13 µM. Besides, the TGI in the assay with 786-0 renal worked out at 4.91 µM; with EKVX NSCLC, 35.4 µM; in the assay with HS 578T breast, 10.1 µM; in the assay on HT29 colon, 5.53 µM; in the assay on M14 melanoma it was 6.43 µM; in the assay on MALME-3M melanoma it was 10.3 µM. Also, the TGI with NCI-H23 lung is 35.4 µM; in the assay on SF-268 CNS, 46 µM; with SN12C renal, 26.7 µM; in the assay with T-47D breast, 4.92 µM.
On to `COc1ccc(C2=C(Br)C(=O)OC2)cc1Cl`, for which the GI50 is 34 µM in the assay on 786-0 renal; 16.7 µM with EKVX NSCLC; 41.2 µM in the assay on HS 578T breast; 48.4 µM in the assay with HT29 colon; more than 53 µM in the assay with M14 melanoma; 37.3 µM with MALME-3M melanoma. The GI50 with NCI-H23 lung was 29.5 µM; in the assay on SF-268 CNS, 32.9 µM; in the assay on SN12C renal, 22.1 µM; in the assay with T-47D breast, 1.93 µM. Moreover, the TGI in the assay on 786-0 renal was more than 100 µM; with EKVX NSCLC it was 71.4 µM; in the assay with HS 578T breast, more than 88.5 µM; in the assay on HT29 colon it was more than 100 µM; in the assay with M14 melanoma, more than 100 µM; in the assay on MALME-3M melanoma it was more than 78.3 µM. The TGI in the assay on NCI-H23 lung was more than 100 µM; with SF-268 CNS, 99.6 µM; in the assay on SN12C renal, 52.3 µM; in the assay on T-47D breast it was 35.5 µM.
As to `Oc1c(Cl)cc(C(c2cc(Cl)c(O)c(Cl)c2)C(c2cc(Cl)c(O)c(Cl)c2)c2cc(Cl)c(O)c(Cl)c2)cc1Cl`, the GI50 with 786-0 renal is 3.49 µM; in the assay on EKVX NSCLC it was 3.35 µM; in the assay on HS 578T breast it was 4.54 µM; in the assay on HT29 colon, 4.36 µM; in the assay with M14 melanoma it was 4.25 µM; in the assay on MALME-3M melanoma, 5.88 µM. The GI50 in the assay with NCI-H23 lung is 3.68 µM; in the assay on SF-268 CNS, 5.09 µM; in the assay on SN12C renal, 2.41 µM; in the assay on T-47D breast, 1.74 µM. For the same compound, the TGI in the assay with 786-0 renal was 16.7 µM; in the assay with EKVX NSCLC, 17.2 µM; with HS 578T breast it was 57.4 µM; with HT29 colon it was 16.3 µM; in the assay on M14 melanoma, 18.8 µM; in the assay with MALME-3M melanoma it was 30.4 µM. Also, the results for the TGI in the assay with NCI-H23 lung, in the assay with SN12C renal and in the assay on T-47D breast were 16.3 µM, 8.99 µM and 12.5 µM, respectively.
As to `Oc1ccc(Cl)cc1Cc1cc(Cl)cc(Cc2cc(Cl)ccc2O)c1O`, the TGI in the assay on 786-0 renal came out at 11.3 µM; in the assay with EKVX NSCLC it was 7.19 µM; in the assay on HS 578T breast it was 7.71 µM; in the assay with HT29 colon it was 10.4 µM; in the assay on M14 melanoma, 6.71 µM; in the assay with MALME-3M melanoma it was 5.56 µM. Further, the TGI with NCI-H23 lung is 6.62 µM; in the assay on SF-268 CNS it was 12 µM; with SN12C renal it was 8.21 µM; with T-47D breast, 7.56 µM.
Take `CN(C)c1cc2c(Nc3ccc4nc(Cc5ccccc5)[nH]c4c3)ncnc2cn1`: the GI50 was 12.5 µM in the assay with 786-0 renal; 8.68 µM with EKVX NSCLC; more than 17.6 µM in the assay with HS 578T breast; 11.9 µM in the assay with HT29 colon; more than 25 µM in the assay with M14 melanoma; more than 16.3 µM with MALME-3M melanoma. Moreover, the GI50 with NCI-H23 lung is more than 23.9 µM; in the assay with SF-268 CNS, more than 23.4 µM; in the assay with SN12C renal, more than 16.1 µM; with T-47D breast it was more than 16.4 µM. For the same compound, the TGI in the assay with 786-0 renal is more than 20.3 µM; with EKVX NSCLC it was more than 25 µM; in the assay with HS 578T breast, more than 25 µM; in the assay with HT29 colon it was more than 23 µM; in the assay with M14 melanoma, more than 25 µM; in the assay on MALME-3M melanoma, more than 25 µM. Also, the TGI with NCI-H23 lung, in the assay with SF-268 CNS, in the assay with SN12C renal and with T-47D breast was more than 25 µM in each case.
Consider `CCS(=O)(=O)c1ccc(OC)c(Nc2ncc(-c3cccc(-c4ccccc4F)c3)o2)c1`, for which the GI50 in the assay on 786-0 renal is 20.3 µM; in the assay with EKVX NSCLC, 7.89 µM; with HS 578T breast, 3.63 µM; in the assay with HT29 colon, 15 µM; with M14 melanoma, more than 25 µM; in the assay on MALME-3M melanoma, more than 25 µM. Moreover, the GI50 was more than 23.8 µM in the assay with NCI-H23 lung, 15.1 µM in the assay on SF-268 CNS, 14.8 µM in the assay with SN12C renal and 6.45 µM in the assay with T-47D breast. Besides, the TGI in the assay with 786-0 renal is more than 25 µM; in the assay on EKVX NSCLC, more than 25 µM; in the assay with HS 578T breast, 15.8 µM; with HT29 colon, more than 25 µM; in the assay on M14 melanoma, more than 25 µM; with MALME-3M melanoma it was more than 25 µM. In addition, the TGI in the assay on NCI-H23 lung, in the assay on SF-268 CNS, in the assay on SN12C renal and in the assay with T-47D breast was more than 25 µM throughout.
Take `CCN(CC)CC(O)CNc1ccc(NCC(O)CCl)c2c1C(=O)c1ccccc1C2=O` (configuration not stated): the TGI came to 15.9 µM with 786-0 renal; 29.5 µM in the assay on EKVX NSCLC; 31 µM in the assay on HS 578T breast; 16.5 µM with HT29 colon; 9.38 µM in the assay on M14 melanoma; 28.3 µM in the assay on MALME-3M melanoma. In addition, the TGI in the assay with NCI-H23 lung is 18.1 µM; in the assay on SF-268 CNS, 19.9 µM; in the assay with SN12C renal it was 19.7 µM; in the assay with T-47D breast, 38.7 µM.
For the compound `COC(=O)C1=C(C(=O)Nc2cccnc2)C2OC1(C(Cc1ccccc1)Oc1ccccc1)C1OC21` (configuration not stated), the GI50 in the assay on 786-0 renal is 1.69 µM; with EKVX NSCLC, 11.8 µM; with HS 578T breast it was 18.6 µM; in the assay with HT29 colon it was 2.73 µM; in the assay on M14 melanoma it was 2.62 µM; in the assay on MALME-3M melanoma, 1.6 µM. Moreover, the GI50 is 12.3 µM in the assay with NCI-H23 lung, 13 µM in the assay with SF-268 CNS, 3.67 µM in the assay with SN12C renal and 2.02 µM in the assay with T-47D breast. Moreover, the TGI in the assay on 786-0 renal was 3.33 µM; with EKVX NSCLC it was 27.2 µM; with HS 578T breast it was 49.9 µM; in the assay with HT29 colon, 6.97 µM; in the assay with M14 melanoma, 7.45 µM; with MALME-3M melanoma it was 3.31 µM. Also, the TGI is 29.1 µM in the assay with NCI-H23 lung, 27.9 µM with SF-268 CNS, 14.2 µM in the assay with SN12C renal and 4.86 µM in the assay on T-47D breast.
`CCN1CCN(CCNc2nccc(-c3c(-c4cccc(O)c4)nc4sccn34)n2)S1(=O)=O`: the GI50 in the assay on 786-0 renal is 22.1 µM and 7.86 µM; in the assay with EKVX NSCLC it was > 32.5 µM and 34.6 µM; in the assay with HS 578T breast, 12.9 µM and 10 µM; in the assay with HT29 colon it was 4.53 µM and 2.2 µM; in the assay on M14 melanoma, 0.168 µM and 0.142 µM; in the assay on MALME-3M melanoma, 0.0775 µM and 0.118 µM. The GI50 was 12.4 µM in the assay with NCI-H23 lung; 23.4 µM and 19.9 µM in the assay on SF-268 CNS; 15.2 µM and 7.73 µM with SN12C renal; 22.1 µM and 11 µM in the assay with T-47D breast. For the same compound, the TGI with 786-0 renal is 32.5 µM and > 100 µM; in the assay on EKVX NSCLC, more than 100 µM; in the assay on HS 578T breast, 30.2 µM and > 100 µM; in the assay on HT29 colon it was 32.5 µM and 31.7 µM; in the assay on M14 melanoma it was 19.8 µM and 10.8 µM; with MALME-3M melanoma, 0.42 µM and 0.785 µM. Further, the TGI in the assay with NCI-H23 lung was 32.5 µM and 51.9 µM; with SF-268 CNS, 32.5 µM and > 100 µM; in the assay with SN12C renal, 32.5 µM and > 100 µM; in the assay on T-47D breast it was 32.5 µM and 53 µM.
Take `CCCCC(SC(=S)N(CC)CC)C(=O)Nc1nc(CC(=O)OCC)cs1` (configuration not stated): the GI50 with 786-0 renal was more than 100 µM; in the assay with EKVX NSCLC, 45.7 µM; in the assay on HS 578T breast, 47.9 µM; in the assay with HT29 colon it was 32.7 µM; in the assay with M14 melanoma, 33.7 µM; with MALME-3M melanoma it was 24.8 µM. Moreover, the figures for the GI50 with SF-268 CNS, in the assay with SN12C renal and in the assay with T-47D breast were 54.3 µM, 77.8 µM and 24.7 µM, respectively. The TGI in the assay on 786-0 renal, with EKVX NSCLC, in the assay on HS 578T breast, in the assay with HT29 colon, with M14 melanoma and in the assay with MALME-3M melanoma was more than 100 µM throughout. Further, the TGI in the assay with SF-268 CNS, with SN12C renal and with T-47D breast was more than 100 µM in each case.

The values are drawn from PubChem BioAssay (NCI).
